PMC9995496, “A screen for MeCP2-TBL1 interaction inhibitors using a luminescence-based assay” (Scientific Reports, 2023)
Ends that are not written are not given here.

Target: T1, MeCP2-TBL1 interaction (MeCP2-SmBiT / TBL1-LgBiT) (Mus musculus, UniProt Q9QXE7)
T1 construct: expressed in transfected cells; crude lysate used as a cell-free assay
T1 sequence (Q9QXE7 166-527): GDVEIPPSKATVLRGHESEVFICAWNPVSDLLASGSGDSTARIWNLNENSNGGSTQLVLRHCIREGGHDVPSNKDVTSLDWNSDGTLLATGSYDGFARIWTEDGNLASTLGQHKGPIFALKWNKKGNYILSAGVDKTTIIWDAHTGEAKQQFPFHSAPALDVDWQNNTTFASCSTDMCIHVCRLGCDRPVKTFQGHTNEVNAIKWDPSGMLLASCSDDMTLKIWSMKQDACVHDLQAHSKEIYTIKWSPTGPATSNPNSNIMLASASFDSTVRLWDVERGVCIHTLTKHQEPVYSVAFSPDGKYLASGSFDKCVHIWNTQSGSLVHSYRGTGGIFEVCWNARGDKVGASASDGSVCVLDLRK
Experiment: MeCP2-TBL1 NanoLuc luciferase complementation assay (cell-free, extracts of transfected HEK293 cells)
Assay type: binding, human
Conditions: 20 µM, n = 7, t-test
In short: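 Cell-free split NanoLuc: lysate of HEK293 cells co-expressing the MeCP2 C-terminal half-SmBiT and TBL1 WD domain-LgBiT, mixed 1:1 with furimazine. After 30 min at room temperature, luminescence was plate-median normalized.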

Compound	inhibition in MeCP2-TBL1 assay compared with control PKA-based assay, individual validation
LSSWVLLMK [AAT, alpha-1 antitrypsin fragment 235–243, reference compound]	statistically significantly greater

Same assay, conditions: 0.3–60 μM

Compound	extent of MeCP2-TBL1 inhibition reached within the tested concentration range
LSSWVLLMK [AAT, alpha-1 antitrypsin fragment 235–243, reference compound]	able to return the luminesce signal back to baseline

Same assay, conditions: 0.3–60 μM, PKA-based assay run in parallel

Compound	separation between MeCP2-TBL1 inhibition and inhibition of the PKA control in dose response
LSSWVLLMK [AAT, alpha-1 antitrypsin fragment 235–243, reference compound]	clear separation

Same assay, conditions: ApexBio library screen, 20 µM, threshold SSMD* ≥ 3; read-out: inhibition in MeCP2-TBL1 assay after adjusting for activity in the PRKACA-PRKAR2A assay

Compound	inhibition at 20 µM
LSSWVLLMK [AAT, alpha-1 antitrypsin fragment 235–243, reference compound]	≥ 35%

Same assay, conditions: primary screen of Asinex library, single well per compound

Compound	Inhibition percent
CN(C)C(=O)[C@@H]1C[C@@H](n2cc(C(=O)NCCc3ccccc3)ccc2=O)[C@H](c2ccccc2)N1C [BDG_34039793]	1.80
CC(C)(NC(=O)Cc1ccccc1)C(=O)N1CCCC(Cc2cccc3ncccc23)C1 (stereo not shown) [BDH_32327552]	-4.87
NC(=O)c1cccc(-c2nccnc2C2CCCN(C(=O)COc3ccc(F)cc3)C2)c1 (stereo not shown) [BDD_27905103]	-2.79
Cc1cc(Oc2ccccc2F)nc(C2CCCCN2C(=O)c2ccnc(-c3cncnc3)c2)n1 (stereo not shown) [BDH_32366371]	0.18
COc1ccc(NC(C)=O)c(NC(=O)CN2C[C@H]3CCC[C@H](Cc4cnccn4)[C@H]3C2)c1 [BDH_33621771]	0.12
C[C@]12C[C@@H](Cc3ccccc3)N(C(=O)c3cccc(Cn4cccn4)c3)[C@H]1CCCC(=O)N2 [BDH_24639058]	-1.63
CC(C)(NC(=O)CCc1ccccc1)C(=O)N1CCC(Cc2ccc3ncccc3c2)CC1 [BDH_32328019]	-2.64
Cc1ccc2c(c1)OC1(CCN(Cc3ccc(Cl)cn3)CC1)[C@H]1CCCO[C@H]21 [BDG_33900424]	0.92
C[C@]12C[C@@H](c3ccccc3)N(CC(=O)Nc3ccc4c(c3)OCCO4)[C@H]1CCCCCN2 [BDH_33617257]	-2.26
Cc1cc(Oc2ccc(F)cc2)nc(C2CCCCN2C(=O)c2cccc(-n3cnnc3)c2)n1 (stereo not shown) [BDH_32364593]	-1.56
CC(C)(CC(=O)O)CC(=O)N1CC[C@@H]2O[C@@H]3c4cc(Cl)ccc4OC(C)(C)[C@H]3C[C@@H]2C1 [BDG_34130555]	0.45

Same assay, conditions: primary screen of the Asinex library, sheet "Sargen output Asinex library", one well per compound

Compound	Inhibition percent
CC(=O)N1CCC(C(=O)N[C@@H]2C[C@@H](Oc3cccc(F)c3)[C@H](O)[C@H]2N(C)Cc2ccccc2)CC1 [BDI_34055064]	0.18%
CCc1ccccc1NC(=O)CN1CC[C@@]2(NC(C)=O)CN(C(C)=O)[C@H](c3ccccc3)[C@H]2C1 [BDH_33623049]	-1.00%
Cn1cc(C(=O)Nc2cccc(C(=O)N3CCCC(Cc4ccnc5ccccc45)CC3)c2)cn1 (stereo not shown) [BDH_32361062]	-0.32%
CC1CCN(C(=O)CN2CCC(C3CCCCN(CCc4ccccc4)C3=O)CC2)CC1 (stereo not shown) [BDE_25214814]	-2.53%
O=C(CC1CCN(C(=O)C2(c3ccc(F)cc3)CCCC2)CC1)Nc1ccc2nccnc2c1 [BDH_32356175]	0.45%
CC(=O)N[C@@H]1C[C@@H](C(=O)N(C)C)N(CC(=O)Nc2ccc3[nH]c(=O)[nH]c3c2)[C@H]1c1ccccc1 [BDH_33615574]	-1.45%
COc1ccc(C2(C(=O)N3CCC4(CC3)CC(Oc3ccccc3F)CO4)CCOCC2)cc1 (stereo not shown) [BDH_32372513]	-1.24%
CC(C)(C)OC(=O)N1CC[C@H]2O[C@H]3c4ccccc4OC(C)(C)[C@@H]3C[C@@]2(CO)C1 [BDG_33896521]	3.83%
COc1ccc([C@H]2CN(C)[C@@H]3CCN(C(=O)c4ccnc(Cc5ccccc5OC)c4)C[C@H]23)cc1 [BDH_33520255]	-0.37%
Cc1cnc(C(=O)N2CCC3(CC2)CO[C@@H]2c4ccc(O)cc4OC(C)(C)[C@H]2C3)cn1 [BDG_33691581]	1.04%
COc1ccccc1CC(=O)N1CCCCC1c1ncc(Cc2ccccc2OC)o1 (stereo not shown) [BDE_33514655]	5.46%
Cc1ncc(C(=O)N2CCC[C@@H]3[C@H]2C/C=C/Cc2ccccc2OCC(=O)N3C)c(C)n1 [BDH_33728424]	-2.62%
Cn1c(=O)c2ccc(C3CCCCN3C(=O)c3cc[nH]n3)nc2n(Cc2ccccc2)c1=O (stereo not shown) [BDD_26868519]	4.40%
CC1(C)Oc2ccccc2[C@@H]2O[C@@H]3CCCN[C@@H]3C[C@H]21 [BDG_33956274]	-3.58%
O=C1CCCC[C@]2(CN(Cc3ccccc3OCc3ccccn3)C[C@H]2c2ccc(F)cc2)N1 [BDH_32358404]	1.07%
Clc1cccc(Cc2cncc(C3CCCN3Cc3ccnc(N4CCOCC4)n3)n2)c1 (stereo not shown) [BDH_27227771]	3.31%
COc1cccc2c1OC(C)(C)[C@H]1CC[C@H](C3CCN(C(=O)CCCC(=O)O)CC3)O[C@H]21 [BDG_34129516]	-0.90%
O=C(c1ccccc1OCCN1CCOCC1)N1CCCC(Cc2ccc3ncccc3c2)C1 (stereo not shown) [BDH_32358044]	-2.19%
CC(=O)N[C@@]12CN(CC(=O)Nc3cccc(C(F)(F)F)c3)CC[C@@H]1[C@@H](c1ccccc1)N(C)C2 [BDH_33616433]	-0.29%
Cc1cccc(Cc2cccc(C3CCCN(C(=O)c4ccnc(N5CCOCC5)c4)C3)n2)c1 (stereo not shown) [BDH_32361750]	-1.55%
CNc1cccc(C2CCCN2Cc2ccc(-c3ccccc3C(=O)O)cc2)n1 (stereo not shown) [BDE_30687673]	-2.37%
CC1(C)Oc2ccccc2[C@H]2O[C@H]3CCN(C(=O)c4cccc(OCC(=O)O)c4)C[C@@H]3C[C@@H]21 [BDG_34133285]	2.74%
CC(=O)N[C@@]12CN(CC(=O)Nc3cccc4c3CCCC4)CC[C@@H]1[C@@H](c1ccccc1)N(C)C2 [BDH_32251192]	4.01%
COc1cccc(Oc2cc(C)nc(C3CCCCN3C(=O)c3cccc(-n4cnnc4)c3)n2)c1 (stereo not shown) [BDH_32365761]	-5.24%
CN(C)c1cncc(C2CCCN2C(=O)C2(C)CCN(C(=O)c3cccc(F)c3)CC2)n1 (stereo not shown) [BDH_32329258]	-1.39%
CC(=O)N(C)Cc1cc(N(C)C)nc(C2CCCN2C(=O)Cc2ccc3c(c2)CCCC3)n1 (stereo not shown) [BDE_23426204]	-14.24%

Same assay, conditions: primary screen of the Asinex library, sheet "Sargen output Asinex library", one well per compound, Batch Ref. 1

Compound	Inhibition percent
O=C(NCCC1CCCCN1C(=O)CCn1cnc2ccccc21)c1ccccc1 (stereo not shown) [BDH_33631954]	-1.65%
CC1(C)Oc2ccccc2[C@H]2OCC3(CCN(C(=O)CCc4cccnc4)CC3)C[C@@H]21 [BDG_33692190]	-1.50%
Cc1ccc(Oc2ncccc2C(=O)N2CCC(c3cccc(Cc4ccccc4)n3)CC2)cn1 [BDH_32356013]	10.27%
CC1(C(=O)N2CCCC(Cc3cccc4ccncc34)CC2)CCN(C(=O)c2ccccc2)CC1 (stereo not shown) [BDH_32360998]	-2.76%
COc1cccc2c1OC1(CCN(Cc3cccc(O)c3)CC1)[C@H]1CCCO[C@H]21 [BDG_33900272]	6.42%
O=C1CCCC[C@]2(CN(Cc3ccnc(N4CCCCC4)n3)C[C@H]2c2cccc(F)c2)N1 [BDH_32353019]	1.21%
Cc1cc(Cc2cccc(F)c2)cc(C2CN(C(=O)Cc3ccc(F)cc3)CCO2)n1 (stereo not shown) [BDF_26219393]	-0.80%
COc1ccccc1NC(=O)C1CN(C(=O)COc2ccccc2)Cc2cn(C)nc21 (stereo not shown) [BDC_23414979]	-4.37%
CC1(C)Oc2ccc(O)cc2[C@H]2O[C@H]3CCN(C(=O)c4cccc(OCC(=O)O)c4)[C@@H]3C[C@@H]21 [BDG_34133313]	-2.82%
C[C@]12C[C@@H](Cc3ccccc3)N(C(=O)C3CCN(Cc4cccnc4)CC3)[C@H]1CCCC(=O)N2 [BDH_33630330]	-0.000826%
CC1(C)Oc2ccc(O)cc2[C@H]2O[C@@H](c3ccccc3)CC[C@@H]21 [BDG_34039634]	6.48%
CNCc1cc(NC)nc(C2CCCN2C(=O)c2cccc(Oc3ccccc3)c2)n1 (stereo not shown) [BDE_23425118]	-0.41%
COc1cccc(Cc2cnc(C3CCCN(C(=O)Cn4ncc5ccccc5c4=O)C3)o2)c1 (stereo not shown) [BDE_33507930]	-1.97%
Cc1noc(C)c1COc1cccc(C(=O)N2CCCC(Cc3cccc4cnccc34)CC2)c1 (stereo not shown) [BDH_32354458]	1.54%
Cc1cc(Cc2ccccc2F)cc(C2CN(C(=O)Cn3cnc4ccccc43)CCO2)n1 (stereo not shown) [BDF_26219772]	3.08%
CNc1nc(C2CCCCN2C(=O)CCCN(C)c2ccccc2)nc2c1CCN(C(C)=O)C2 (stereo not shown) [BDE_33628015]	-2.14%
CC1(C)Oc2ccccc2[C@H]2OCC3(CCN(C(=O)c4cccc(-n5cnnc5)c4)CC3)C[C@@H]21 [BDG_33695504]	0.97%
Cc1cc(C)nc(NCCC(=O)N2[C@H](Cc3ccccc3)C[C@]3(C)NC(=O)CCC[C@H]23)n1 [BDH_24639981]	-1.66%
O=C(Cn1cccn1)N1CCOC(c2cc(C(=O)N3CCOCC3)c3ccccc3n2)C1 (stereo not shown) [BDD_24083810]	-2.04%
Cc1cc(-c2ccc(N)nc2)cc(C2CN(C(=O)CCc3cccc(Cl)c3)CCO2)n1 (stereo not shown) [BDF_26216758]	8.38%
Cc1cc(Nc2cccc(C3CN(C(=O)Cc4ccc5c(c4)CCCO5)CCO3)n2)nn1C (stereo not shown) [BDF_25246163]	-0.41%
COCC(=O)N1CC2(CO[C@@H]3c4cccc(OC)c4OC(C)(C)[C@H]3C2)C1 [BDG_33739062]	-2.32%
CC(C)CCC[C@]1(C)Oc2ccccc2[C@H]2OCC3(CCCN3)C[C@@H]21 (stereo partly shown) [BDG_34020347]	1.89%
